# Reference: patent US20100197610A1, “FRUCTOSE 1, 6 BISPHOSPHATE - A NOVEL ANTICONVULSANT DRUG” (Baylor College of Medicine, priority 2007, published 2010)
# Experiments:
# [1] = system: kainic acid-induced seizures; assay: Kainic acid model of acute seizures; format: in vivo, Sprague Dawley rats; details: for animals with mild seizures (wet dog shakes or head bobbing) / animals with severe seizures: 8 animals
# Procedure: (§1) All animal experiments were carried out in accordance with the National Institutes of Health guide for the care and use of laboratory animals (NIH publication 8023, revised 1996) and with the approval of the local Animal Use Committee. Unless indicated, all chemicals were obtained from Sigma Chemical Co (St. Louis Mo.). Male, Sprague Dawley rats weighing 50-74 g (young) or 147-309 g (adult) were used in this study. Acute seizures were induced by kainic acid (KA; Ocean Produce Int., Canada), pilocarpine or pentylenetetrazole (PTZ) as previously described (Lian et al 2006). These models were chosen because they initiate seizures by different mechanisms and the seizures have a relatively gradual onset compared to seizures initiated by stimulation. There was no difference in the body weight of the animals receiving the different convulsants. For pilocarpine, kainic acid and PTZ, the mean weights were 219±5 g (range 163-275 g), 215±7 g (range 183-258 g), and 216±13 g (range 147-309 g), respectively. The animals in the drug treatment groups were not different in weight from the animals in the control groups.
# (§2) After administration of KA (10 mg/kg, ip), pilocarpine (scopolamine methyl bromide 1 mg/kg, s.c followed 15 min later by 300 mg/kg, ip pilocarpine) or PTZ (50 mg/kg, ip) (Lian et al., 2006), animals were continuously monitored for seizure activity for at least 5 h after KA or pilocarpine and for 30 min after PTZ. Behavioral seizures were scored by an investigator blinded to the treatment. Latency to the first wet dog shake after KA, latency to the first forelimb clonus (after pilocarpine, kainic acid or PTZ) and the score and duration of seizures were measured. When at least 1 hour had passed without any head bobbing (for pilocarpine) or any wet dog shakes (for KA), seizures were considered over. Status epilepticus lasting longer than 4 hours (for KA) or 5 hours (for pilocarpine) were assigned 4 and 5 hours for seizure duration. For animals receiving PTZ, the seizure duration was defined as the period of tonic-clonic seizures. EEG recording in the hippocampus was conducted as previously described (Lian et al., 2004). After anesthesia, a recording electrode was placed in a burr hole centered at 3.0 mm posterior to bregma, 1.8 mm lateral to the midline and then lowered 3.0 mm. A ground screw and wire was placed over the frontal region in another burr hole. This assembly was fixed to the skull with dental cement.
# (§3) Each animal was assigned the score of the most severe seizure observed. The behavioral seizures induced by KA or pilocarpine were scored according to an adjusted version of the scale of Racine (Bough et al., 2002): stage 1, wet dog shakes after KA or trembling after pilocarpine; stage 2, head bobbing and stereotypes; stage 3, unilateral forelimb clonus; stage 4, bilateral forelimb clonus; stage 5, rearing and falling; stage 6, jumping and/or running followed by falling. Death within 24 h was assigned stage 7.
# (§4) Adult rats received either D-F1,6BP, sodium valproate (VPA, 0.3 g/kg), 2-DG (0.25, 0.5 g/kg) or normal saline (vehicle) intraperitoneally followed 1 h later by one of the convulsants. The dose for VPA was based on experimental evidence that doses from 0.1 to 0.4 g/kg (ip) are effective in animal models (Bough and Eagles, 2001; Manent et al., 2007). Three doses of F1,6BP (0.25, 0.5 and 1 g/kg) were tested with this dosing schedule. Two additional groups were administered F1,6BP (0.5 or 1 g/kg, n=5) after pilocarpine. In this experiment, the F1,6BP was given intraperitoneally at the first behavioral seizure, which was chewing movements of the jaw. Two additional sets of animals were fed the classic ketogenic diet (No. F3666; Bio-Serv, Frenchtown, N.J.). One set of animals was given the diet beginning on postnatal day 22-26 (KD-Yng) and maintained on this diet for 4 weeks. Thus the seizures were tested in this group when the animals had reached approximately the same age (50-54 days) as the majority of the animals tested. […]
# [2] = system: pilocarpine-induced seizures; assay: Pilocarpine model of acute seizures; format: in vivo, Sprague Dawley rats
# Procedure: as §1, §2, §3, §4
# [3] = Preliminary studies of efficacy, trisodium vs dicalcium salt of FDP; format: in vivo
# [4] = system: spontaneous seizures after pilocarpine-induced status epilepticus; assay: Oral FDP against spontaneous seizures after pilocarpine-induced status epilepticus; format: in vivo; details: FDP 0.5% in drinking water
# Procedure: Animals (n=14) were treated with pilocarpine to induce status epilepticus and subsequent spontaneous seizures. Four weeks later daily observation was begun and the number of seizures per day was determined for at least 6 days. The mean number of seizures per day over a 6 day period was determined for each animal and this was normalized to 100%. Half of the animals then had FDP added to the drinking water at a concentration of 0.5%. The number of seizures on each day was determined for each animal and calculated as percent of the baseline. The mean (±SEM) across animals in each treatment group was then calculated and plotted as a function of the days of treatment. […] Overall, the data was analyzed with a 2-way ANOVA comparing drug treatment against time and baseline rate of seizures. […] Post-hoc analysis determined that specifically on day 9 and 10 (*) the control was different than FDP-treated. Thus, oral administration of FDP has anticonvulsant activity against the generalized tonic-clonic seizures that are observed after pilocarpine-induced status epilepticus.
# [5] = cited from earlier work
# [6] = 1 g/kg given at first sign of seizure activity after pilocarpine
compound,measurement,setting,value
"O=C(COP(=O)(O)O)[C@@H](O)[C@H](O)[C@H](O)COP(=O)(O)O [F1,6BP, Fructose-1,6-bisphosphate]",effect on the seizures,"[1]; F1,6BP 0.25 g/kg, n=6",no effect
same,animals with no seizures,"[1]; F1,6BP 0.5 g/kg",Two out of 8
same,mean seizure score,"[1]; F1,6BP 0.5 g/kg",2.5±0.5
same,animals with mild seizures (wet dog shakes or head bobbing),"[1]; F1,6BP 0.5 g/kg",three
same,animals with severe seizures,"[1]; F1,6BP 0.5 g/kg",3
same,onset of seizures,"[1]; F1,6BP 0.5 or 1 g/kg",significantly delayed
same,seizure duration,"[1]; F1,6BP 0.5 or 1 g/kg",decreased
same,seizure score,"[1]; F1,6BP 0.5 or 1 g/kg",decreased
same,animals with no seizures,"[1]; F1,6BP 1 g/kg",Three out of 8
same,average seizure score for the entire group,"[1]; F1,6BP 1 g/kg",1.4±0.5
same,mean latency to first forelimb clonus,"[1]; F1,6BP 1 g/kg",105 ± 7 min
same,animals with mild seizures (wet dog shakes or head bobbing),"[1]; F1,6BP 1 g/kg",3
same,animals with severe seizures,"[1]; F1,6BP 1 g/kg",2
same,latency to forelimb clonus,[2]; [6],increase
same,seizure duration,[2]; [6],decrease
same,progression of the seizures,"[2]; 1 g/kg given at first sign of seizure activity after pilocarpine, n=5",significantly slowed
same,behavioral or electrographic seizures (hippocampal EEG),[2]; 4 rats pretreated with 1 g/kg,no behavioral or electrographic seizures
same,effect on the seizure parameters,"[2]; F1,6BP 0.25 g/kg ip 1 h before pilocarpine, n=5",no effect
same,animals with a seizure score ≧3,"[2]; F1,6BP 0.5 g/kg ip 1 h before pilocarpine",3 out of 10
same,animals with a seizure score ≧3,"[2]; F1,6BP 1 g/kg ip 1 h before pilocarpine",2 out of 10
same,seizure duration,[2]; pretreated with 0.5 or 1 g/kg,significantly decreased
same,seizure score,[2]; pretreated with 0.5 or 1 g/kg,significantly decreased
same,latency to the seizures,[2]; the 5 animals with score ≧3 after 0.5 or 1 g/kg pretreatment,significantly increased
same,efficacy of trisodium salt vs dicalcium salt,[3],no difference in efficacy
same,seizures per day (percent of baseline) vs non-treatment control group,[4]; 2-way ANOVA,significantly different
same,animals having a seizure by day 7,[4]; 7 animals,1
same,toxicity in humans,[5]; administered to humans,no reported toxicity
same,safety in healthy volunteers,[5]; doses from 5 to 15 g,safe
